Assay results reported in patent US8623325B2, “Azide modified charge sensitive channel proteins” (priority 2008, dated 2014).

Target: T1, E. coli channel protein MscL Gly22Cys (Escherichia coli, UniProt P0A742, G22C)
T1 construct: made in house
Assay: Calcein release from liposomes containing MscL Gly22Cys (self-quenching fluorescent dye)
Assay type: biochemical
Procedure: MscL-MA was reconstituted into synthetic liposomes composed of azolectin by using a detergent mediated reconstitution method. The incorporation of channels protein in lipid vesicles is describe in detail in WO2005051902 This procedure was performed in the presence of calcein, a self-quenching fluorescent dye. At high local concentrations inside the liposomes, the fluorescence of calcein is low. Release of calcein from liposomes results in dilution of the dye and consequently in a large increase in fluorescence intensity. The labelling and reconstitution was validated by using unlabeled MscL instead of MscL-MA.
The activity of azide labeled Gly22Cys MscL in the liposome was verified with triphenylphosphine (Trisodium triphenylphosphine-3,3′,3″-trisulfonate) at pH 7.2-7.5 at 37° C.
A control experiment was performed using vesicles with unlabelled Gly22Cys MscL and the channel activator MTSET, which is a charged and cysteine-reactive molecule.
MscL-MA has a closed conformation. Calcein can not leave from a vesicle via this closed MscL-MA. To these vesicles MTSET was added. Unlabelled cysteine residues, if present, will react with MTSET and introduce a charge in the channel protein resulting in the opening of the channel and release of fluorescent label. Such residual activation was not observed, showing that a quantitative MA labelling of all cysteines in MscL was obtained (FIG. 7, bottom panel).
In the experimental setting calcein-filled vesicles with MscL-MA are treated with triphenylphosphine at […].
Control experiments are performed using the same calcein filled vesicles with MscL, which is not modified with MA and wherein these unmodified vesicles are treated with triphenylphosphine.

T1 sequence (P0A742 whole entry G22C): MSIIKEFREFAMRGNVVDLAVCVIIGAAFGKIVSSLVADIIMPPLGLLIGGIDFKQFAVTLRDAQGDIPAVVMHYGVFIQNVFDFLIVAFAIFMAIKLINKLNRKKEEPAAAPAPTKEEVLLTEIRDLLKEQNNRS

Structure (SMILES) | release from MscL upon contacting with phosphine (MscL modified with compound IX, calcein filled vesicles, pH 7.4) | calcein release after addition of MTSET (calcein-filled liposomes with unlabelled (unmodified) Gly22Cys MscL) | activation / calcein release after addition of MTSET (vesicles with azide-modified MscL (MscL-MA))
CS(=O)(=O)SCCOC(=O)CNC(=O)OCc1ccc(N=[N+]=[N-])cc1 [compound IX] | significant increase in release |  | 
C[N+](C)(C)CCSS(C)(=O)=O.[Br-] [MTSET] |  | resulted in calcein release | could not activate the modified MscL
